Measured values from patent US11110091B2, “Modulators of toll-like receptors” (Gilead Sciences, Inc., priority 2008, dated 2021).

These molecules were tested on human Peripheral Blood Mononuclear Cell (PMBC) (assay: PBMC assay: cytokine (IFN-α) stimulation at 24 hours). Conditions: lowest concentration stimulating IFN-α production at least 3-fold over background, Luminex, read-out: IFN MEC.
Assay type: cell-based
Procedure: Assays were conducted to determine cytokine stimulation at 24 hours from human Peripheral Blood Mononuclear Cell (PMBC) using the compounds of the present invention. The assays were run in duplicate, with 8-point, half-log dilution curves. The compounds of the present invention were diluted from 10 mM DMSO solution. Cell supernatants are assayed directly for IFNα and 1:10 dilution for TNFα. The assays were performed in a similar fashion as described in Bioorg. […] Specifically, cryo-preserved PBMCs were thawed and seeded 96 well plates with 750,000 cells/well in 190 μL/well cell media. The PBMCs were then incubated for 1 hour at 37° C. at 5% CO2. Then, the compounds of the present invention were added in 10 μL cell media at 8 point, half-log dilution titration. The plates were incubated at 37° C. and 5% CO2 for 24 hours and then spinned at 1200 rpm for 10 min, which was followed by collecting supernatant and storing the same at −80° C. Cytokine secretion was assayed with Luminex and Upstate multi-plex kits, using a Luminex analysis instrument. The IFN-α MEC value for a compound was the lowest concentration at which the compound stimulated IFN-α production at least 3-fold over the background as determined using the assay method above.

SMILES | minimal effective concentration [µM]
CCCCOc1nc(N)c2c(n1)N(Cc1ccc(CN3CCCC3)cc1)C(C)C(=O)N2 (centres unmarked) [Example 65] | ≤ 0.03
CCCCOc1nc(N)c2c(n1)N(Cc1ccnc(N3CCOCC3)c1)CC(=O)N2 [Example 66] | > 0.03
Nc1nc(OCC2CCCO2)nc2c1NC(=O)CN2Cc1ccnc(N2CCOCC2)c1 (centres unmarked) [Example 67] | > 0.03
Nc1nc(O[C@@H]2C[C@@H]3C[C@@H]3C2)nc2c1NC(=O)CN2Cc1cccc(CN2CCCC2)c1 [Example 68] | ≤ 0.03
Nc1nc(OC2CCCC2)nc2c1NC(=O)CN2Cc1ccnc(N2CCOCC2)c1 [Example 69] | > 0.03
CCCCOc1nc(N)c2c(n1)N(Cc1ccc3c(c1)CN(CC1CC1)CC3)CC(=O)N2 [Example 70] | ≤ 0.03
CCCCOc1nc(N)c2c(n1)N(Cc1ccc3c(c1)CN(C(C)C)CC3)CC(=O)N2 [Example 71] | ≤ 0.03
CCCCOc1nc(N)c2c(n1)N(Cc1ccc3c(c1)CN(CC1CCC1)CC3)CC(=O)N2 [Example 72] | ≤ 0.03
CCCCOc1nc(N)c2c(n1)N(C(C)c1ccc(CN3CCCC3)cc1)CC(=O)N2 (centres unmarked) [Example 74] | > 0.03
CCCCOc1nc(N)c2c(n1)N(Cc1cccc(CN3CCC(C(=O)O)CC3)c1)CC(=O)N2 [Example 75] | > 0.03
CCCCNc1nc(N)c2c(n1)N(Cc1cccc(CN3CCCC3)c1)CCC(=O)N2 [Example 76] | > 0.03
Nc1nc(NCC2CCCO2)nc2c1NC(=O)CN2Cc1cccc(CN2CCCC2)c1 (centres unmarked) [Example 77] | > 0.03
CCCCNc1nc(N)c2c(n1)N(Cc1ccnc(N3CCOCC3)c1)CC(=O)N2 [Example 78] | > 0.03
CCCCOc1nc(N)c2c(n1)N(Cc1cccc(CN3CCN(C)CC3)c1)CC(=O)N2 [Example 79] | ≤ 0.03
CCCCOc1nc(N)c2c(n1)N(Cc1cccc(CNc3ccccn3)c1)CC(=O)N2 [Example 80] | > 0.03
CCCN(C)C(=O)c1nc(N)c2c(n1)N(Cc1cccc(CN3CCCC3)c1)CC(=O)N2 [Example 81] | > 0.03
CCCCOc1nc(N)c2c(n1)N(Cc1cccc(CN3CCCC3)c1)C(O)C(=O)N2 (centres unmarked) [Example 82] | ≤ 0.03
CCCCOc1nc(N)c2[nH]c(=O)c(=O)n(Cc3cccc(CN4CCCC4)c3)c2n1 [Example 83] | ≤ 0.03
CCCN(C)C(=O)c1nc(N)c2c(n1)N(Cc1ccc(CN3CCCC3)cc1)CC(=O)N2 [Example 85] | > 0.03
COC[C@H](C)Oc1nc(N)c2c(n1)N(Cc1cccc(CN3CCCC3)c1)CC(=O)N2 [Example 87] | ≤ 0.03
COC[C@@H](C)Oc1nc(N)c2c(n1)N(Cc1cccc(CN3CCCC3)c1)CC(=O)N2 [Example 88] | ≤ 0.03
CCCCOc1nc(N)c2[nH]c(=O)c(=O)n(Cc3ccccc3CN3CCCC3)c2n1 [Example 89] | ≤ 0.03
CCCCNc1nc(N)c2[nH]c(=O)c(=O)n(Cc3cccc(CN4CCCC4)c3)c2n1 [Example 90] | > 0.03
COCCOc1nc(N)c2[nH]c(=O)c(=O)n(Cc3cccc(CN4CCCC4)c3)c2n1 [Example 91] | > 0.03
CCCN(C)C(=O)c1nc(N)c2[nH]c(=O)c(=O)n(Cc3cccc(CN4CCCC4)c3)c2n1 [Example 92] | > 0.03

SMILES | minimal effective concentration [µM]
CCCN(C)C(=O)c1nc(N)c2[nH]c(=O)c(=O)n(Cc3ccc(CN4CCCC4)cc3)c2n1 [Example 93] | ≤ 0.03
COCCOc1nc(N)c2c(n1)N(Cc1ccc(-c3cccc(CN4CCCC4)c3)cc1)CC(=O)N2 [Example 94] | ≤ 0.03
COCCOc1nc(N)c2[nH]c(=O)c(=O)n(Cc3ccc(-c4cccc(CN5CCCC5)c4)cc3)c2n1 [Example 95] | ≤ 0.03
CCCCOc1nc(N)c2c(n1)N(Cc1ccc(-c3cccc(CN4CCCC4)c3)cc1)CC(=O)N2 [Example 96] | ≤ 0.03
CCCCOc1nc(N)c2[nH]c(=O)c(=O)n(Cc3ccc(-c4cccc(CN5CCCC5)c4)cc3)c2n1 [Example 97] | ≤ 0.03
COCCOc1nc(N)c2c(n1)N(Cc1ccc(-c3ccc(CN4CCCC4)cc3)cc1)CC(=O)N2 [Example 98] | ≤ 0.03
COCCOc1nc(N)c2[nH]c(=O)c(=O)n(Cc3ccc(-c4ccc(CN5CCCC5)cc4)cc3)c2n1 [Example 99] | ≤ 0.03
CCCCOc1nc(N)c2c(n1)N(Cc1ccc(-c3ccc(CN4CCCC4)cc3)cc1)CC(=O)N2 [Example 100] | ≤ 0.03
CCCCOc1nc(N)c2[nH]c(=O)c(=O)n(Cc3ccc(-c4ccc(CN5CCCC5)cc4)cc3)c2n1 [Example 101] | > 0.03
CCCCOc1nc(N)c2c(n1)N(Cc1cccc(CN3C(C)CCC3C)c1)CC(=O)N2 (centres unmarked) [Example 102] | ≤ 0.03
CCCCOc1nc(N)c2c(n1)N(Cc1ccc3c(c1)CCNC3)CC(=O)N2 [Example 103] | ≤ 0.03
CCCCOc1nc(N)c2c(n1)N(Cc1ccc3c(c1)CCN(CC)C3)CC(=O)N2 [Example 104] | ≤ 0.03
CCCCOc1nc(N)c2c(n1)N(Cc1ccc3c(c1)CCN(C(C)C)C3)CC(=O)N2 [Example 105] | ≤ 0.03
CCCCOc1nc(N)c2c(n1)N(Cc1ccc3c(c1)CCN(CC1CC1)C3)CC(=O)N2 [Example 106] | > 0.03
CCCCOc1nc(N)c2c(n1)N(CCC1CCN(Cc3ccccc3)CC1)CC(=O)N2 [Example 108] | > 0.03
CCCC(C)Oc1nc(N)c2c(n1)N(Cc1ccc(C)nc1)CC(=O)N2 (centres unmarked) [Example 109] | > 0.03
CCCCOc1nc(N)c2c(n1)N(CCCN(Cc1ccccc1)C(=O)CN1CCN(C)CC1)CC(=O)N2 [Example 110] | ≤ 0.03
CCCCOc1nc(N)c2c(n1)N(Cc1ccc(C)nc1)CC(=O)N2 [Example 111] | > 0.03
CCCCOc1nc(N)c2[nH]c(=O)c(=O)n(Cc3ccc(C)nc3)c2n1 [Example 112] | > 0.03
CCCCOc1nc(N)c2c(n1)N(CCC1CCN(CC3CC3)CC1)CC(=O)N2 [Example 113] | ≤ 0.03
Cc1ccc(CN2CC(=O)Nc3c(N)nc(OCC4CCCO4)nc32)cn1 (centres unmarked) [Example 114] | > 0.03
Cc1ccc(CN2CC(=O)Nc3c(N)nc(OCC4CCOC4)nc32)cn1 (centres unmarked) [Example 115] | > 0.03
CCC[C@H](C)Oc1nc(N)c2c(n1)N(Cc1ccc(C)nc1)CC(=O)N2 [Example 116] | > 0.03
CCCCOc1nc(N)c2c(n1)N(Cc1ccc(C(F)(F)F)nc1)CC(=O)N2 [Example 117] | > 0.03
Nc1nc(OCC2CCOCC2)nc2c1NC(=O)CN2Cc1ccc(C(F)(F)F)nc1 [Example 118] | > 0.03
